Each molecule was assayed against human NaV 1.8 (Homo sapiens, UniProt Q9Y5Y9) (assay: E-VIPR assay detecting and measuring NaV inhibition properties). Settings: HEK cells expressing truncated human NaV 1.8; no human serum; read-out: IC50 in the E-VIPR Assay.
Assay type: cell-based
How it was run: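 HEK cells expressing truncated, fully active human NaV1.8, with KIR2.1 BacMam co-transduction, were loaded with CC2-DMPE/DiSBAC6(3) voltage-sensing dyes for 20 min at room temperature. Compounds were tested in 11-point 3-fold dilutions (300 nM top final), optionally with 25% human serum, under electrical stimulation with FRET read-out.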

Chain of human NaV 1.8 (Q9Y5Y9 126-399 limits assumed): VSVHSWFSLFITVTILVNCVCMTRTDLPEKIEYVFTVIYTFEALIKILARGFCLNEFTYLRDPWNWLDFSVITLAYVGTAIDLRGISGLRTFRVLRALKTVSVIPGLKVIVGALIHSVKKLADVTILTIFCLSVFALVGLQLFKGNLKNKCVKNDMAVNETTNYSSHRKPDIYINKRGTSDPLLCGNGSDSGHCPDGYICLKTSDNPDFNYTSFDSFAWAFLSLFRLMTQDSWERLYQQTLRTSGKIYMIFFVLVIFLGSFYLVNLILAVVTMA
Chain of human NaV 1.8 (Q9Y5Y9 660-890 limits assumed): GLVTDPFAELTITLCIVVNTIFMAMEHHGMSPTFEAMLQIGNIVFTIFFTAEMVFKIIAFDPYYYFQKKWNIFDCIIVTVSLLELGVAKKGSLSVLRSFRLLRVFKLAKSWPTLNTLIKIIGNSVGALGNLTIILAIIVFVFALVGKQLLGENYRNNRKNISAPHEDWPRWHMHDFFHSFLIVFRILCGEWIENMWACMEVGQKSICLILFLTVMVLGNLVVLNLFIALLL
Chain of human NaV 1.8 (Q9Y5Y9 1148-1722 limits assumed): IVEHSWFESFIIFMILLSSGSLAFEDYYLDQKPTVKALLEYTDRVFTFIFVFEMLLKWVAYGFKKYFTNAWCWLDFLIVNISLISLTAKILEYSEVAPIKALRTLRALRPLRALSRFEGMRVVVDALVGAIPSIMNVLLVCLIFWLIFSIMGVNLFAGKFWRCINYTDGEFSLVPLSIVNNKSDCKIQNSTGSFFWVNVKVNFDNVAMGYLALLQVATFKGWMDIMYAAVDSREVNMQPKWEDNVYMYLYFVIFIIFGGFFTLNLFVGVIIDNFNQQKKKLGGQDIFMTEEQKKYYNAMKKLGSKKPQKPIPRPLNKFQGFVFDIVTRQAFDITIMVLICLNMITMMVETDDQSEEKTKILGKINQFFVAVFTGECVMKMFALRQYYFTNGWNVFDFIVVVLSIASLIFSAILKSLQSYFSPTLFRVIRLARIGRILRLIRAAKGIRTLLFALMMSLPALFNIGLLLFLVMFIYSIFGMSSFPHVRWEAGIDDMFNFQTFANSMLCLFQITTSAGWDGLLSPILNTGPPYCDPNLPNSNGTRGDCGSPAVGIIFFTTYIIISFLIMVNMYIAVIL

IC50, < 10 nM:
COCCCOc1c([C@H]2[C@H](C(=O)Nc3ccnc(CO)c3)O[C@@](C)(C(F)(F)F)[C@H]2C)ccc(F)c1F [Compound 642, (2R,3S,4S,5R)-3-(3,4-difluoro-2-(3-methoxypropoxy)phenyl)-N-(2-(hydroxymethyl)pyridin-4-yl)-4,5-dimethyl-5-(trifluoromethyl)tetrahydrofuran-2-carboxamide]
C[C@H]1[C@@H](c2ccc(F)c(F)c2OCC(C)(F)F)[C@H](C(=O)Nc2ccnc(CO)c2)O[C@@]1(C)C(F)(F)F [Compound 643, (2R,3S,4S,5R)-3-(2-(2,2-difluoropropoxy)-3,4-difluorophenyl)-N-(2-(hydroxymethyl)pyridin-4-yl)-4,5-dimethyl-5-(trifluoromethyl)tetrahydrofuran-2-carboxamide]
COC[C@@H](C)Oc1c([C@H]2[C@H](C(=O)Nc3ccnc(CO)c3)O[C@@](C)(C(F)(F)F)[C@H]2C)ccc(F)c1F [Compound 646, (2R,3S,4S,5R)-3-(3,4-difluoro-2-(((R)-1-methoxypropan-2-yl)oxy)phenyl)-N-(2-(hydroxymethyl)pyridin-4-yl)-4,5-dimethyl-5-(trifluoromethyl)tetrahydrofuran-2-carboxamide]
COCCOc1c([C@H]2[C@H](C(=O)Nc3ccnc(C(O)CO)c3)O[C@@](C)(C(F)(F)F)[C@H]2C)ccc(F)c1F (stereo partly drawn) [Compound 647, (2R,3S,4S,5R)-3-[3,4-difluoro-2-(2-methoxyethoxy)phenyl]-N-[2-(1,2-dihydroxyethyl)-4-pyridyl]-4,5-dimethyl-5-(trifluoromethyl)tetrahydrofuran-2-carboxamide]
COCCOc1c([C@H]2[C@H](C(=O)Nc3ccnc(CCO)c3)O[C@@](C)(C(F)(F)F)[C@H]2C)ccc(F)c1F [Compound 648, (2R,3S,4S,5R)-3-[3,4-difluoro-2-(2-methoxyethoxy)phenyl]-N-[2-(2-hydroxyethyl)-4-pyridyl]-4,5-dimethyl-5-(trifluoromethyl)tetrahydrofuran-2-carboxamide]
Cc1cnc(COc2c([C@H]3[C@H](C(=O)Nc4cccnc4)O[C@@](C)(C(F)(F)F)[C@H]3C)ccc(F)c2F)n1C [Compound 651, (2R,3S,4S,5R)-3-(2-((1,5-dimethyl-1H-imidazol-2-yl)methoxy)-3,4-difluorophenyl)-4,5-dimethyl-N-(pyridin-3-yl)-5-(trifluoromethyl)tetrahydrofuran-2-carboxamide]
COCCOc1c([C@H]2[C@H](C(=O)Nc3ccnc(N4C(=O)CN(C)C[C@H]4C)c3)O[C@@](C)(C(F)(F)F)[C@H]2C)ccc(F)c1F [Compound 652, (2R,3S,4S,5R)-3-[3,4-difluoro-2-(2-methoxyethoxy)phenyl]-N-[2-[(2R)-2,4-dimethyl-6-oxo-piperazin-1-yl]-4-pyridyl]-4,5-dimethyl-5-(trifluoromethyl)tetrahydrofuran-2-carboxamide]
C[C@H]1[C@@H](c2ccc(F)c(F)c2OC2CC(O)C2)[C@H](C(=O)Nc2cccnc2)O[C@@]1(C)C(F)(F)F (stereo partly drawn) [Compound 654, (2R,3S,4S,5R)-3-(3,4-difluoro-2-((1S,3R)-3-hydroxycyclobutoxy)phenyl)-4,5-dimethyl-N-(pyridin-3-yl)-5-(trifluoromethyl)tetrahydrofuran-2-carboxamide]

IC50, ≥ 1000 nM:
CC1C(c2ccc(F)c(F)c2OC2CC(O)C2)C(C(=O)Nc2cc(CO)ncc2F)OC1(C)C(F)(F)F [Compound 657, (2R,3S,4S,5R)-3-(3,4-difluoro-2-((1S,3R)-3-hydroxycyclobutoxy)phenyl)-N-(5-fluoro-2-(hydroxymethyl)pyridin-4-yl)-4,5-dimethyl-5-(trifluoromethyl)tetrahydrofuran-2-carboxamide]

IC50, 100 to 1000 nM:
C[C@H]1[C@@H](c2ccc(F)c(F)c2O)[C@H](C(=O)Nc2ccc(C(N)=O)nc2)O[C@@]1(C)C(F)(F)F [Compound 649, 5-[[(2R,3S,4S,5R)-3-(3,4-difluoro-2-hydroxy-phenyl)-4,5-dimethyl-5-(trifluoromethyl)tetrahydrofuran-2-carbonyl]amino]pyridine-2-carboxamide]

IC50, 10 to 100 nM:
C[C@H]1[C@@H](c2ccc(F)c(F)c2OCC2CC(F)(F)C2)[C@H](C(=O)Nc2ccnc(CO)c2)O[C@@]1(C)C(F)(F)F [Compound 644, (2R,3S,4S,5R)-3-(2-((3,3-difluorocyclobutyl)methoxy)-3,4-difluorophenyl)-N-(2-(hydroxymethyl)pyridin-4-yl)-4,5-dimethyl-5-(trifluoromethyl)tetrahydrofuran-2-carboxamide]
C[C@H]1[C@@H](c2ccc(F)c(F)c2OCC2(F)COC2)[C@H](C(=O)Nc2ccnc(CO)c2)O[C@@]1(C)C(F)(F)F [Compound 645, (2R,3S,4S,5R)-3-(3,4-difluoro-2-((3-fluorooxetan-3-yl)methoxy)phenyl)-N-(2-(hydroxymethyl)pyridin-4-yl)-4,5-dimethyl-5-(trifluoromethyl)tetrahydrofuran-2-carboxamide]
Cc1cn(C)c(COc2c([C@H]3[C@H](C(=O)Nc4cccnc4)O[C@@](C)(C(F)(F)F)[C@H]3C)ccc(F)c2F)n1 [Compound 650, (2R,3S,4S,5R)-3-(2-((1,4-dimethyl-1H-imidazol-2-yl)methoxy)-3,4-difluorophenyl)-4,5-dimethyl-N-(pyridin-3-yl)-5-(trifluoromethyl)tetrahydrofuran-2-carboxamide]
C[C@@H]1CN(C)CC(=O)N1c1cc(NC(=O)[C@@H]2O[C@@](C)(C(F)(F)F)[C@@H](C)[C@H]2c2ccc(F)c(F)c2OCCO)ccn1 [Compound 653, (2R,3S,4S,5R)-3-(3,4-difluoro-2-(2-hydroxyethoxy)phenyl)-N-(2-((R)-2,4-dimethyl-6-oxopiperazin-1-yl)pyridin-4-yl)-4,5-dimethyl-5-(trifluoromethyl)tetrahydrofuran-2-carboxamide]
C[C@H]1[C@@H](c2ccc(F)c(F)c2O[C@H]2C[C@@H](O)C2)[C@H](C(=O)Nc2ccc(C(N)=O)nc2)O[C@@]1(C)C(F)(F)F [Compound 655, 5-((2R,3S,4S,5R)-3-(3,4-difluoro-2-((1S,3R)-3-hydroxycyclobutoxy)phenyl)-4,5-dimethyl-5-(trifluoromethyl)tetrahydrofuran-2-carboxamido)picolinamide]
Cc1oncc1NC(=O)C1OC(C)(C(F)(F)F)C(C)C1c1ccc(F)c(F)c1OC1CC(O)C1 [Compound 656, (2R,3S,4S,5R)-3-(3,4-difluoro-2-((1S,3R)-3-hydroxycyclobutoxy)phenyl)-4,5-dimethyl-N-(5-methylisoxazol-4-yl)-5-(trifluoromethyl)tetrahydrofuran-2-carboxamide]
C[C@H]1[C@@H](c2ccc(F)c(F)c2O[C@H]2C[C@@H](O)C2)[C@H](C(=O)Nc2ccnnc2)O[C@@]1(C)C(F)(F)F [Compound 658, (2R,3S,4S,5R)-3-(3,4-difluoro-2-((1s,3R)-3-hydroxycyclobutoxy)phenyl)-4,5-dimethyl-N-(pyridazin-4-yl)-5-(trifluoromethyl)tetrahydrofuran-2-carboxamide]
C[C@H]1[C@@H](c2ccc(F)c(F)c2O[C@H]2C[C@@H](O)C2)[C@H](C(=O)Nc2cncc(C#N)c2)O[C@@]1(C)C(F)(F)F [Compound 659, (2R,3S,4S,5R)-N-(5-cyanopyridin-3-yl)-3-(3,4-difluoro-2-((1S,3R)-3-hydroxycyclobutoxy)phenyl)-4,5-dimethyl-5-(trifluoromethyl)tetrahydrofuran-2-carboxamide]
C[C@H]1[C@@H](c2ccc(F)c(F)c2O[C@H]2C[C@@H](O)C2)[C@H](C(=O)Nc2cncc(F)c2)O[C@@]1(C)C(F)(F)F [Compound 660, (2R,3S,4S,5R)-3-(3,4-difluoro-2-((1S,3R)-3-hydroxycyclobutoxy)phenyl)-N-(5-fluoropyridin-3-yl)-4,5-dimethyl-5-(trifluoromethyl)tetrahydrofuran-2-carboxamide]
Cc1ccc(NC(=O)C2OC(C)(C(F)(F)F)C(C)C2c2ccc(F)c(F)c2OC2CC(O)C2)cn1 [Compound 661, (2R,3S,4S,5R)-3-(3,4-difluoro-2-((1S,3R)-3-hydroxycyclobutoxy)phenyl)-4,5-dimethyl-N-(6-methylpyridin-3-yl)-5-(trifluoromethyl)tetrahydrofuran-2-carboxamide]
C[C@H]1[C@@H](c2ccc(F)c(F)c2O[C@H]2C[C@@H](O)C2)[C@H](C(=O)Nc2ccn(C)c(=O)c2)O[C@@]1(C)C(F)(F)F [Compound 663, (2R,3S,4S,5R)-3-(3,4-difluoro-2-((1S,3R)-3-hydroxycyclobutoxy)phenyl)-4,5-dimethyl-N-(1-methyl-2-oxo-1,2-dihydropyridin-4-yl)-5-(trifluoromethyl)tetrahydrofuran-2-carboxamide]
COCc1cc(NC(=O)C2OC(C)(C(F)(F)F)C(C)C2c2ccc(F)c(F)c2OC2CC(O)C2)ccn1 [Compound 664, (2R,3S,4S,5R)-3-(3,4-difluoro-2-((1S,3R)-3-hydroxycyclobutoxy)phenyl)-N-(2-(methoxymethyl)pyridin-4-yl)-4,5-dimethyl-5-(trifluoromethyl)tetrahydrofuran-2-carboxamide]
Cc1cncc(NC(=O)C2OC(C)(C(F)(F)F)C(C)C2c2ccc(F)c(F)c2OC2CC(O)C2)c1 [Compound 665, (2R,3S,4S,5R)-3-(3,4-difluoro-2-((1S,3R)-3-hydroxycyclobutoxy)phenyl)-4,5-dimethyl-N-(5-methylpyridin-3-yl)-5-(trifluoromethyl)tetrahydrofuran-2-carboxamide]
Cc1nn(C(F)F)cc1NC(=O)[C@@H]1O[C@@](C)(C(F)(F)F)[C@@H](C)[C@H]1c1ccc(F)c(F)c1CO [Compound 668, (2R,3S,4S,5R)-3-(3,4-difluoro-2-(hydroxymethyl)phenyl)-N-(1-(difluoromethyl)-3-methyl-1H-pyrazol-4-yl)-4,5-dimethyl-5-(trifluoromethyl)tetrahydrofuran-2-carboxamide]
